Assay results from ChEMBL document CHEMBL1144422, “Symmetrical bis-quinolinium compounds: new human choline kinase inhibitors with antiproliferative activity against the HT-29 cell line” (J Med Chem, 2005).

How the values were obtained:
[1] = system: HT-29; assay: In vitro antiproliferative effect in […] HT 29 cells; type: functional, cell-based; conditions: Homo sapiens
[2] = molecular target: Choline kinase alpha (Homo sapiens, UniProt P35790); assay: Ex vivo inhibitory concentration against human choline kinase
Choline kinase alpha, sequence (P35790 whole entry): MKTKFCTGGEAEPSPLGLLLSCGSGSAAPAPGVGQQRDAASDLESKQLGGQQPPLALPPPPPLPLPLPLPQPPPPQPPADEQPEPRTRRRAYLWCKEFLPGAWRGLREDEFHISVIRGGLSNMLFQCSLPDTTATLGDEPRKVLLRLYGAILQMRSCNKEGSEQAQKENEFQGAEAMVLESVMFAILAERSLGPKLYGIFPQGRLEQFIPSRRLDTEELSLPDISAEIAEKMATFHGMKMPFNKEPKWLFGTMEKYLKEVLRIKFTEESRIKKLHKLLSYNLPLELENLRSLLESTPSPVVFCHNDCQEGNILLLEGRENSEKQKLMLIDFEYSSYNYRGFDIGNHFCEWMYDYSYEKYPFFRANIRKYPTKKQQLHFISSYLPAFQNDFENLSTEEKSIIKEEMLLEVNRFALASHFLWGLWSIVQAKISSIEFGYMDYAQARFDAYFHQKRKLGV

[3] = system: HT-29; assay: Antiproliferative activity against HT 29 cells; type: functional, cell-based; conditions: Homo sapiens

SMILES | IC50 [1] [µM] | IC50 [2] [µM] | IC50 [3] [µM]
Clc1ccc2c(N3CCCC3)cc[n+](Cc3cccc(-c4cccc(C[n+]5ccc(N6CCCC6)c6ccc(Cl)cc65)c4)c3)c2c1 | 0.4 |  | 
CN(c1ccccc1)c1cc[n+](Cc2cccc(-c3cccc(C[n+]4ccc(N(C)c5ccccc5)c5ccccc54)c3)c2)c2ccccc12 | 0.8 | 0.4 | 
Nc1cc[n+](Cc2cccc(-c3cccc(C[n+]4ccc(N)c5ccc(Cl)cc54)c3)c2)c2cc(Cl)ccc12 | 1.9 | 20.6 | 
c1ccc(Nc2cc[n+](Cc3cccc(-c4cccc(C[n+]5ccc(Nc6ccccc6)c6ccccc65)c4)c3)c3ccccc23)cc1 | 1.6 | 1.3 | 
CN(c1ccc(Cl)cc1)c1cc[n+](Cc2ccc(-c3ccc(C[n+]4ccc(N(C)c5ccc(Cl)cc5)c5ccc(Cl)cc54)cc3)cc2)c2cc(Cl)ccc12 | 1.2 |  | 
CN(c1ccccc1)c1cc[n+](Cc2ccc(-c3ccc(C[n+]4ccc(N(C)c5ccccc5)c5ccc(Cl)cc54)cc3)cc2)c2cc(Cl)ccc12 | 0.5 | 11.4 | 
CN(C)c1cc[n+](Cc2ccc(-c3ccc(C[n+]4ccc(N(C)C)c5ccccc54)cc3)cc2)c2ccccc12 | 1.7 | 39.7 | 
Cc1c(N)ccc2c(N(C)c3ccccc3)cc[n+](Cc3cccc(-c4cccc(C[n+]5ccc(N(C)c6ccccc6)c6ccc(N)c(C)c65)c4)c3)c12 | 3.8 | 56.8 | 
Nc1cc[n+](Cc2ccc(-c3ccc(C[n+]4ccc(N)c5ccc(Cl)cc54)cc3)cc2)c2cc(Cl)ccc12 | 3.2 | 63.3 | 
c1ccc(Nc2cc[n+](Cc3ccc(-c4ccc(C[n+]5ccc(Nc6ccccc6)c6ccccc65)cc4)cc3)c3ccccc23)cc1 | 0.7 | 17.8 | 
CN(c1ccc(Cl)cc1)c1cc[n+](Cc2ccc(CCc3ccc(C[n+]4ccc(N(C)c5ccc(Cl)cc5)c5ccc(Cl)cc54)cc3)cc2)c2cc(Cl)ccc12 | 0.8 |  | 
CN(C)c1cc[n+](Cc2ccc(CCc3ccc(C[n+]4ccc(N(C)C)c5ccccc54)cc3)cc2)c2ccccc12 | 0.5 | 10.2 | 
CN(c1ccccc1)c1cc[n+](Cc2ccc(CCc3ccc(C[n+]4ccc(N(C)c5ccccc5)c5ccc(Cl)cc54)cc3)cc2)c2cc(Cl)ccc12 | 0.5 | 3.5 | 
CN(C)c1cc[n+](Cc2cccc(-c3cccc(C[n+]4ccc(N(C)C)c5ccc(Cl)cc54)c3)c2)c2cc(Cl)ccc12 | 0.7 |  | 
Cc1c(N)ccc2c(N(C)c3ccccc3)cc[n+](Cc3ccc(CCc4ccc(C[n+]5ccc(N(C)c6ccccc6)c6ccc(N)c(C)c65)cc4)cc3)c12 | 7 | 133 | 
Nc1cc[n+](Cc2ccc(CCc3ccc(C[n+]4ccc(N)c5ccccc54)cc3)cc2)c2ccccc12 | 2 | 80 | 
CN(C)c1cc[n+](Cc2ccc(-c3ccc(C[n+]4ccc(N(C)C)c5ccc(Cl)cc54)cc3)cc2)c2cc(Cl)ccc12 | 0.8 | 20.6 | 
c1ccc2c(c1)c(N1CCCCCC1)cc[n+]2Cc1ccc(CCc2ccc(C[n+]3ccc(N4CCCCCC4)c4ccccc43)cc2)cc1 | 0.3 | 0.6 | 
c1ccc(Nc2cc[n+](Cc3ccc(CCc4ccc(C[n+]5ccc(Nc6ccccc6)c6ccccc65)cc4)cc3)c3ccccc23)cc1 | 0.3 | 2.3 | 
CN(c1ccccc1)c1cc[n+](Cc2ccc(CCc3ccc(C[n+]4ccc(N(C)c5ccccc5)c5ccccc54)cc3)cc2)c2ccccc12 | 0.7 | 1.4 | 
Cc1c[n+](Cc2ccc(-c3ccc(C[n+]4cc(C)c(N)c5ccccc54)cc3)cc2)c2ccccc2c1N | 3.3 | > 200 | 

SMILES | IC50 [1] [µM] | IC50 [2] [µM] | IC50 [3] [µM]
Clc1ccc2c(N3CCCC3)cc[n+](Cc3ccc(-c4ccc(C[n+]5ccc(N6CCCC6)c6ccc(Cl)cc65)cc4)cc3)c2c1 | 2.4 | 19.8 | 
CN(c1ccccc1)c1cc[n+](Cc2cccc(-c3cccc(C[n+]4ccc(N(C)c5ccccc5)c5ccc(Cl)cc54)c3)c2)c2cc(Cl)ccc12 | 1 | 3.1 | 
CN(c1ccc(Cl)cc1)c1cc[n+](Cc2cccc(-c3cccc(C[n+]4ccc(N(C)c5ccc(Cl)cc5)c5ccc(Cl)cc54)c3)c2)c2cc(Cl)ccc12 | 1.9 |  | 
Cc1c[n+](Cc2cccc(-c3cccc(C[n+]4cc(C)c(N)c5ccccc54)c3)c2)c2ccccc2c1N | 4.4 | 11.9 | 
c1ccc2c(c1)c(N1CCCCCC1)cc[n+]2Cc1ccc(-c2ccc(C[n+]3ccc(N4CCCCCC4)c4ccccc43)cc2)cc1 | 0.5 | 2.2 | 
Nc1cc[n+](Cc2ccc(-c3ccc(C[n+]4ccc(N)c5ccccc54)cc3)cc2)c2ccccc12 | 2.2 | 81.1 | 
Nc1cc[n+](Cc2cccc(-c3cccc(C[n+]4ccc(N)c5ccccc54)c3)c2)c2ccccc12 | 1.9 | 1.2 | 
Clc1ccc2c(N3CCCC3)cc[n+](Cc3ccc(CCc4ccc(C[n+]5ccc(N6CCCC6)c6ccc(Cl)cc65)cc4)cc3)c2c1 | 0.2 |  | 
Cc1c(N)ccc2c(N(C)c3ccc(Cl)cc3)cc[n+](Cc3ccc(-c4ccc(C[n+]5ccc(N(C)c6ccc(Cl)cc6)c6ccc(N)c(C)c65)cc4)cc3)c12 | 19.4 | 46.1 | 
CN(C)c1cc[n+](Cc2cccc(-c3cccc(C[n+]4ccc(N(C)C)c5ccccc54)c3)c2)c2ccccc12 | 1.6 | 4.4 | 
Nc1cc[n+](Cc2ccc(CCc3ccc(C[n+]4ccc(N)c5ccc(Cl)cc54)cc3)cc2)c2cc(Cl)ccc12 | 1.9 | > 200 | 
CN(c1ccc(Cl)cc1)c1cc[n+](Cc2ccc(CCc3ccc(C[n+]4ccc(N(C)c5ccc(Cl)cc5)c5ccccc54)cc3)cc2)c2ccccc12 | 0.7 |  | 
CN(c1ccc(Cl)cc1)c1cc[n+](Cc2cccc(-c3cccc(C[n+]4ccc(N(C)c5ccc(Cl)cc5)c5ccccc54)c3)c2)c2ccccc12 | 1.5 |  | 
CN(C)c1cc[n+](Cc2ccc(CCc3ccc(C[n+]4ccc(N(C)C)c5ccc(Cl)cc54)cc3)cc2)c2cc(Cl)ccc12 | 0.27 | 9 | 0.45
Cc1c(N)ccc2c(N(C)c3ccc(Cl)cc3)cc[n+](Cc3ccc(CCc4ccc(C[n+]5ccc(N(C)c6ccc(Cl)cc6)c6ccc(N)c(C)c65)cc4)cc3)c12 | 19.5 | 57.5 | 
c1cc(C[n+]2ccc(N3CCCCCC3)c3ccccc32)cc(-c2cccc(C[n+]3ccc(N4CCCCCC4)c4ccccc43)c2)c1 | 0.5 | 0.5 | 
Cc1c(N)ccc2c(N(C)c3ccccc3)cc[n+](Cc3ccc(-c4ccc(C[n+]5ccc(N(C)c6ccccc6)c6ccc(N)c(C)c65)cc4)cc3)c12 | 25.2 | 96.1 | 
Cc1c(N)ccc2c(N(C)c3ccc(Cl)cc3)cc[n+](Cc3cccc(-c4cccc(C[n+]5ccc(N(C)c6ccc(Cl)cc6)c6ccc(N)c(C)c65)c4)c3)c12 | 33 | 147 | 
CN(c1ccccc1)c1cc[n+](Cc2ccc(-c3ccc(C[n+]4ccc(N(C)c5ccccc5)c5ccccc54)cc3)cc2)c2ccccc12 | 0.6 | 3 | 
CN(c1ccc(Cl)cc1)c1cc[n+](Cc2ccc(-c3ccc(C[n+]4ccc(N(C)c5ccc(Cl)cc5)c5ccccc54)cc3)cc2)c2ccccc12 [RSM-932A] | 1.2 |  | 
